Source: US9765060B2 (Gilead Sciences, Inc., priority 2014, dated 2017)

What follows are molecules tested against PI3K isoform δ (Homo sapiens (Human), UniProt O00329) (assay: TR-FRET assay of enzymatic activity of class I PI3K isoforms). Conditions: IC50 (nM) for PI3K isoform δ (Table 3), TR-FRET; 2× Km ATP, 2 μM PIP2; incubated for 30 minutes at 25° C.
PI3K isoform δ, sequence (O00329 whole entry, canonical isoform): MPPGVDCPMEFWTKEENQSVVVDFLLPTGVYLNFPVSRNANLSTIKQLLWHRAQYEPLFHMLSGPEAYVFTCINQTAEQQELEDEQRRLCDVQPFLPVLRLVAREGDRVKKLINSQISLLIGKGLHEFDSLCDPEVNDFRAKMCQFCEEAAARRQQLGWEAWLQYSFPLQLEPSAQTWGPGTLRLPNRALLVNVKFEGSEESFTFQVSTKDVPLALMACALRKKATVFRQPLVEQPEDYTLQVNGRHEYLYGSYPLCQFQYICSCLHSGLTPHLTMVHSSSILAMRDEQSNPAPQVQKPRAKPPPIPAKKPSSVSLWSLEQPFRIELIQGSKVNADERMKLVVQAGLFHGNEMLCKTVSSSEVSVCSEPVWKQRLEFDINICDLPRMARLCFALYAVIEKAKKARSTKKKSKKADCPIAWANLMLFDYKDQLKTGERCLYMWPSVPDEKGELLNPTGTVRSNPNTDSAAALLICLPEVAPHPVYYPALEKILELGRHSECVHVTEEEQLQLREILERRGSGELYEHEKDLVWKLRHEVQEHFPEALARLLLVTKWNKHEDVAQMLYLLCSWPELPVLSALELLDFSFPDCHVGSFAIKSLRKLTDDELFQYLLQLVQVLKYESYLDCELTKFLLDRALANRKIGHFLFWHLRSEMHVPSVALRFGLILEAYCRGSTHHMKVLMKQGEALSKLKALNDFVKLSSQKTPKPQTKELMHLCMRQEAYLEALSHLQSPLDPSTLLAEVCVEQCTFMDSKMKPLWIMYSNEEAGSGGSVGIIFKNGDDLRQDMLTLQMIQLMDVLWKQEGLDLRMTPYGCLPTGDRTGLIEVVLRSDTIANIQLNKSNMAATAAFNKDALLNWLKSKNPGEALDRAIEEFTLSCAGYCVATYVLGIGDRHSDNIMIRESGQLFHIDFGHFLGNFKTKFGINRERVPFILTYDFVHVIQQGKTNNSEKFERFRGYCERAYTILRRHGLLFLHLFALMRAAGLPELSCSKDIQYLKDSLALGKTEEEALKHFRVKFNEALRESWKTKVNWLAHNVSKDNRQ
PI3K isoform δ, sequence (P27986 whole entry partner, canonical isoform): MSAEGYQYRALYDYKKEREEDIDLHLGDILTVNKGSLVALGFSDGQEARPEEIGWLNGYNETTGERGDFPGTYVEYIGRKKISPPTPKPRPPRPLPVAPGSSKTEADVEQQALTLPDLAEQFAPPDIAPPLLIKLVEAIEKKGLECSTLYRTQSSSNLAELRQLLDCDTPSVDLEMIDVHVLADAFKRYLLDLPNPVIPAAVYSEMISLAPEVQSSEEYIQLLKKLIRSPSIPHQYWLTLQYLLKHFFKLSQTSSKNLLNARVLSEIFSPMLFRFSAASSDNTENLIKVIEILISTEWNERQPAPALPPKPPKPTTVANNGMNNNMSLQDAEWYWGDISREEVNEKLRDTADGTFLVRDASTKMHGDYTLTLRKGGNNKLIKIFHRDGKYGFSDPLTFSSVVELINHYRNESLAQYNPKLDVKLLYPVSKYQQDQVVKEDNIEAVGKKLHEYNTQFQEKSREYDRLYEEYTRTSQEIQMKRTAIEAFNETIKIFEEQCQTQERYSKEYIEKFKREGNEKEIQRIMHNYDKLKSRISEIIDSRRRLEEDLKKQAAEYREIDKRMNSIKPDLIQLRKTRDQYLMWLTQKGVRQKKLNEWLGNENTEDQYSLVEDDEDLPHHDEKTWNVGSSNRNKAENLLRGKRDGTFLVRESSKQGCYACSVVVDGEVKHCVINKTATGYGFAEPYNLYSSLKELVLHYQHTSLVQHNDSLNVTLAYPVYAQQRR
Source text: TR-FRET monitored the formation of 3,4,5-inositol triphosphate molecule that competed with fluorescently labeled PIP3 for binding to the GRP-1 pleckstrin homology domain protein. […] Class I PI3K isoforms were expressed and purified as heterodimeric recombinant proteins. All assay reagents and buffers for the TR-FRET assay were purchased from Millipore.

Question: How did the IC50 turn out when C[C@H](Nc1nc(N)nc(Cl)c1C#N)c1nc2cccc(F)c2c(=O)n1-c1cc(F)cc(F)c1 [Compound 102, (S)-2-amino-4-chloro-6-((1-(3-(3,5-difluorophenyl)-5-chloro-4-oxo-3-phenyl-3,4-dihydroquinazolin-2-yl)ethyl)amino)pyrimidine-5-carbonitrile] was run?
Answer: 30 nM

Same assay, conditions: read-out: IC50 (nM) for PI3K isoform δ (Table 2); TR-FRET; 2× Km ATP, 2 μM PIP2; incubated for 30 minutes at 25° C.

Question: Which IC50 does the source give for CN(C)C(=O)C[C@H](Nc1nc(N)nc(N)c1C#N)c1nc2cccc(Cl)c2c(=O)n1-c1cc(F)cc(F)c1 [Compound 9a, (S)-3-(5-chloro-3-(3,5-difluorophenyl)-4-oxo-3,4-dihydroquinazolin-2-yl)-3-((2,6-diamino-5-cyanopyrimidin-4-yl)amino)-N,N-dimethylpropanamide] here?
Answer: 61 nM

Question: How did the IC50 turn out when N#Cc1c(N)nc(N)nc1N[C@H](c1nc2cccc(Cl)c2c(=O)n1-c1cc(F)cc(F)c1)C1CC1 [Compound 13a, (S)-2,4-diamino-6-(((5-chloro-3-(3,5-difluorophenyl)-4-oxo-3,4-dihydroquinazolin-2-yl)(cyclopropyl)methyl)amino)pyrimidine-5-carbonitrile] was run?
Answer: 1 nM

Question: Which IC50 does the source give for N#Cc1c(N)nc(N)nc1N[C@@H](c1ccccc1)c1nc2cccc(Cl)c2c(=O)n1-c1ccccc1 [Compound 3a, (S)-2,4-diamino-6-(((5-chloro-4-oxo-3-phenyl-3,4-dihydroquinazoline-2-yl)(phenyl)methyl)amino)pyrimidine-5-carbonitrile] here?
Answer: 0.3 nM

Question: CC(=O)c1c(N)nc(N)nc1N[C@@H](C)c1nc2cccc(Cl)c2c(=O)n1-c1cc(F)cc(F)c1 [Compound 18a, (S)-2 (1-((5-acetyl-2,6-diaminopyrimidin-4-yl)amino)ethyl)-5-chloro-3-(3,5-difluorophenyl)quinazolin-4(3H)-one] was tested. Which IC50 did it give?
Answer: 6 nM

Question: Which IC50 does the source give for N#Cc1c(N)nc(N)nc1N[C@H](c1nc2cccc(C#N)c2c(=O)n1-c1ccccc1)C1CC1 [Compound 1a, (S)-2-(cyclopropyl((2,6-diamino-5-cyanopyrimidin-4-yl)amino)methyl)-4-oxo-3-phenyl-3,4-dihydroquinazoline-5-carbonitrile] here?
Answer: 5 nM

Same assay, conditions: read-out: IC50 (nM) for PI3K isoform δ (Table 3); TR-FRET; 2× Km ATP, 2 μM PIP2; incubated for 30 minutes at 25° C.

Question: Which IC50 does the source give for C[C@H](Nc1nc(N)nc(N)c1C#N)c1nc2cccc(OCC(=O)N3CCOCC3)c2c(=O)n1-c1ccccc1 [Compound 35, (S)-2,4-diamino-6-((1-(5-(2-morpholino-2-oxoethoxy)-4-oxo-3-phenyl-3,4-dihydroquinazolin-2-yl)ethyl)amino)pyrimidine-5-carbonitrile] here?
Answer: 7 nM

Question: With Cc1nc(N)nc(N[C@@H](C)c2nc3cccc(Cl)c3c(=O)n2-c2ccccc2)c1I [Compound 97, (S)-2-(1-((2-amino-5-iodo-6-methylpyrimidin-4-yl)amino)ethyl)-5-chloro-3-phenylquinazolin-4(3H)-one] as the molecule, how does the IC50 read?
Answer: 0.6 nM

Question: With N#Cc1c(N)nc(N)nc1N1CCC[C@H]1c1nc2c(Cl)ccc(Cl)c2c(=O)n1-c1cccc(S(N)(=O)=O)c1 [Compound 91, (S)-3-(5,8-dichloro-2-(1-(2,6-diamino-5-cyanopyrimidin-4-yl)pyrrolidin-2-yl)-4-oxoquinazolin-3(4H)-yl)benzenesulfonamide] as the molecule, how does the IC50 read?
Answer: 17 nM

Question: N#Cc1c(N)nc(N)nc1N1C[C@H](NC(=O)CC2CC2)C[C@H]1c1nc2cccc(Cl)c2c(=O)n1-c1ccccc1 [Compound 114, N-((3R,5S)-5-(5-chloro-4-oxo-3-phenyl-3,4-dihydroquinazolin-2-yl)-1-(2,6-diamino-5-cyanopyrimidin-4-yl)pyrrolidin-3-yl)-2,2-cyclopropylacetamide] was tested. Which IC50 did it give?
Answer: 0.9 nM

Question: For N#Cc1cc(F)cc(-n2c([C@@H]3CCCN3c3nc(N)nc(N)c3C#N)nc3cccc(Cl)c3c2=O)c1 [Compound 88, (S)-2,4-diamino-6-(2-(5-chloro-3-(3-cyano-5-fluorophenyl)-4-oxo-3,4-dihydroquinazolin-2-yl)pyrrolidin-1-yl)pyrimidine-5-carbonitrile], which IC50 is on record?
Answer: 17 nM

Question: Which IC50 does the source give for CC1COCC(C)N1CCCc1cccc2nc([C@H](C)Nc3nc(N)nc(N)c3C#N)n(-c3ccccc3)c(=O)c12 (stereo partly drawn) [Compound 49, 2,4-diamino-6-(((1S)-1-(5-(3-(3,5-dimethylmorpholino)propyl)-4-oxo-3-phenyl-3,4-dihydroquinazolin-2-yl)ethyl)amino)pyrimidine-5-carbonitrile] here?
Answer: 1.4 nM

Question: C[C@H](Nc1nc(N)nc(N)c1C#N)c1nc2cccc(OCC(C)(CO)CO)c2c(=O)n1-c1ccccc1 [Compound 29, (S)-2,4-diamino-6-((1-(5-(3-hydroxy-2-(hydroxymethyl)-2-methylpropoxy)-4-oxo-3-phenyl-3,4-dihydroquinazolin-2-yl)ethyl)amino)pyrimidine-5-carbonitrile] was tested. Which IC50 did it give?
Answer: 220 nM

Question: With C[C@H](Nc1nc(Cl)nc(N)c1C#N)c1nc2cccc(Cl)c2c(=O)n1-c1ccccc1 [Compound 104, (S)-4-amino-2-chloro-6-((1-(5-chloro-4-oxo-3-phenyl-3,4-dihydroquinazolin-2-yl)ethyl)amino)pyrimidine-5-carbonitrile] as the molecule, how does the IC50 read?
Answer: 4 nM

Question: How did the IC50 turn out when C[C@H](Nc1nc(N)nc(N)c1C#N)c1nc2cccc(OCCN3CCCC3=O)c2c(=O)n1-c1ccccc1 [Compound 26] was run?
Answer: 21 nM

Question: How did the IC50 turn out when C[C@H](Nc1nc(N)nc(N)c1C#N)c1nc2cccc(SCCO)c2c(=O)n1-c1cccc(F)c1 [Compound 79, (S)-2,4-diamino-6-((1-(3-(3-fluorophenyl)-5-((2-hydroxyethyl)thio)-4-oxo-3,4-dihydroquinazolin-2-yl)ethyl)amino)pyrimidine-5-carbonitrile] was run?
Answer: 51 nM

Question: How did the IC50 turn out when C[C@H](Nc1nc(N)nc(N)c1C#N)c1nc2cccc(CCCN3CC(F)(F)OC(F)(F)C3)c2c(=O)n1-c1ccccc1 [Compound 54, (S)-2,4-diamino-6-((1-(4-oxo-3-phenyl-5-(3-(2,2,6,6-tetrafluoromorpholino)propyl)-3,4-dihydroquinazolin-2-yl)ethyl)amino)pyrimidine-5-carbonitrile] was run?
Answer: 0.5 nM

Question: How did the IC50 turn out when CS(=O)(=O)c1cccc2nc([C@@H]3CCCN3c3nc(N)nc(N)c3C#N)n(-c3ccccc3F)c(=O)c12 (atropisomer, axis not shown) [Compound 74, (S)-2,4-diamino-6-(2-(3-(2-fluorophenyl)-5-(methylsulfonyl)-4-oxo-3,4-dihydroquinazolin-2-yl)pyrrolidin-1-yl)pyrimidine-5-carbonitrile] was run?
Answer: 3 nM

Question: For Cc1ccccc1S(=O)(=O)c1cccc2nc([C@H](C)Nc3nc(N)nc(N)c3C#N)n(-c3cccc(F)c3)c(=O)c12 [Compound 81, (S)-2,4-diamino-6-((1-(3-(3-fluorophenyl)-4-oxo-5-(o-tolylsulfonyl)-3,4-dihydroquinazolin-2-yl)ethyl)amino)pyrimidine-5-carbonitrile], which IC50 is on record?
Answer: 6 nM

Question: How did the IC50 turn out when N#Cc1c(N)nc(N)nc1N1C[C@H](NC(=O)C(F)F)C[C@H]1c1nc2cccc(F)c2c(=O)n1-c1cc(F)cc(F)c1 [Compound 111, N-((3R,5S)-1-(2,6-diamino-5-cyanopyrimidin-4-yl)-5-(3-(3,5-difluorophenyl)-5-fluoro-4-oxo-3,4-dihydroquinazolin-2-yl)pyrrolidin-3-yl)-2,2-difluoroacetamide] was run?
Answer: 9 nM

Question: Which IC50 does the source give for C[C@H](Nc1nc(N)nc(N)c1C#N)c1nc2cccc(CCCN3CCC4(CC3)COC4)c2c(=O)n1-c1ccccc1 [Compound 64, (S)-4-((1-(5-(3-(2-oxa-7-azaspiro[3.5]nonan-7-yl)propyl)-4-oxo-3-phenyl-3,4-dihydroquinazolin-2-yl)ethyl)amino)-2,6-diaminopyrimidine-5-carbonitrile] here?
Answer: 30 nM

Question: With C[C@H](Nc1nc(N)nc(N)c1C#N)c1nc2cccc(S(=O)(=O)c3ccccc3)c2c(=O)n1-c1cccc(F)c1 [Compound 76, (S)-2,4-diamino-6-((1-(3-(3-fluorophenyl)-4-oxo-5-(phenylsulfonyl)-3,4-dihydroquinazolin-2-yl)ethyl)amino)pyrimidine-5-carbonitrile] as the molecule, how does the IC50 read?
Answer: 1.3 nM

Question: Which IC50 does the source give for C[C@H](Nc1nc(N)nc(N)c1C#N)c1nc2cccc(CCCN3CCCC3)c2c(=O)n1-c1cc(F)cc(F)c1 [Compound 51, (S)-2,4-diamino-6-((1-(3-(3,5-difluorophenyl)-4-oxo-5-(3-(pyrrolidin-1-yl)propyl)-3,4-dihydroquinazolin-2-yl)ethyl)amino)pyrimidine-5-carbonitrile] here?
Answer: 3 nM

Question: With N#Cc1c(N)nc(N)nc1N1C[C@H](NC(=O)C(F)F)C[C@H]1c1nc2cccc(Cl)c2c(=O)n1-c1ccccc1 [Compound 107, N-((3R,5S)-5-(5-chloro-4-oxo-3-phenyl-3,4-dihydroquinazolin-2-yl)-1-(2,6-diamino-5-cyanopyrimidin-4-yl)pyrrolidin-3-yl)-2,2-difluoroacetamide] as the molecule, how does the IC50 read?
Answer: 0.4 nM

Question: How did the IC50 turn out when C[C@H](Nc1nc(N)nc(N)c1C#N)c1nc2c(F)ccc(CCC(N)=O)c2c(=O)n1-c1ccccc1 [Compound 38, (S)-3-(2-(1-((2,6-diamino-5-cyanopyrimidin-4-yl)amino)ethyl)-8-fluoro-4-oxo-3-phenyl-3,4-dihydroquinazoline-5-yl)propanamide] was run?
Answer: 0.5 nM

Question: Which IC50 does the source give for C[C@H](Nc1nc(N)nc(Cl)c1C#N)c1nc2cccc(Cl)c2c(=O)n1-c1cc(F)cc(F)c1 [Compound 105, (S)-2-amino-4-chloro-6-((1-(5-chloro-3-(3,5-difluorophenyl)-4-oxo-3,4-dihydroquinazolin-2-yl)ethyl)amino)pyrimidine-5-carbonitrile] here?
Answer: 2 nM

Question: Which IC50 does the source give for N#Cc1c(N)nc(N)nc1N1CCC[C@H]1c1nc2c(Cl)ccc(Cl)c2c(=O)n1-c1cccc(S(N)(=O)=O)c1 (single isomer, unassigned) [Compound 92] here?
Answer: 7 nM

Question: Which IC50 does the source give for N#Cc1c(N)nc(N)nc1N1CCC[C@H]1c1nc2cccc(C#N)c2c(=O)n1-c1ccccc1 [Compound 89, (S)-2-(1-(2,6-diamino-5-cyanopyrimidin-4-yl)pyrrolidin-2-yl)-4-oxo-3-phenyl-3,4-dihydroquinazoline-5-carbonitrile] here?
Answer: 2 nM

Question: C[C@H](Nc1nc(N)nc(N)c1C#N)c1nc2cccc(OCCN3CCCCC3)c2c(=O)n1-c1ccccc1 [Compound 30, (S)-2,4-diamino-6-((1-(4-oxo-3-phenyl-5-(2-(piperidin-1-yl)ethoxy)-3,4-dihydroquinazolin-2-yl)ethyl)amino)pyrimidine-5-carbonitrile] was tested. Which IC50 did it give?
Answer: 6 nM
